Measurements taken from patent US20180186823A1, “PLATINUM COMPOUNDS, COMPOSITIONS, AND USES THEREOF” (PLACON THERAPEUTICS, INC., priority 2015, published 2018).
pIC50: −log10 of the molar value. Read-outs that look alike come from different tables or passages of the source.

What was measured:
H460 cells = assay: In vitro inhibition of cell proliferation (CellTiter-Glo); format: cell-based, human; conditions: 48 hours treatment; starting dose 20 uM, three-fold dilutions
Procedure: Human cancer cell lines were plated in 96 well plates (Costar) and 24 hours later were treated with a compound for 48-72 hours. Specifically, H460 cells (ATCC) were plated at a concentration of 1,500 cells per well and compound treatment was carried out for 48 hours. Compound starting dose was 20 uM and three-fold serial dilutions were done for a total of ten points. Inhibition of cell proliferation was measured using CellTiter-Glo® reagent using the standard protocol (Promega) and a Glomax® multi+detection system (Promega). Percent proliferation inhibition was calculated using the following formula: % inhibition=(control-treatment)/control*100. Control is defined as vehicle alone. IC50 curves were generated using the nonlinear regression analysis (four parameter) with GraphPad Prism 6.

Calu-6 NSCLC xenografts = assay: Tumor growth inhibition in Calu-6 NSCLC xenografts in nude mice; format: in vivo, mouse; conditions: dose not given
Excerpt: (§1) Tumor measurements were taken twice weekly, using vernier calipers.

A2780 ovarian xenografts = assay: Tumor growth inhibition in A2780 ovarian xenografts in nude mice; format: in vivo, mouse; conditions: for TGI %: dose not given; for TGI % compared to cisplatin and oxaliplatin (FIG. 17): in vivo screen, A2780 model
Excerpt: as §1

[1] = Tumor platinum levels (ICP-MS) in H460 tumor-bearing nude mice; format: in vivo, mouse
Procedure: To examine the ability of compounds disclosed herein to accumulate in tumors, a murine cancer model was used. Animals were inoculated with 5×10^5 H460 […] lung cancer cells via subcutaneous injection to the flank. Tumors were allowed to reach an approximate volume of ˜500 mm^3. Animals were then randomized into treatment groups of 3 animals per time point and were dosed at 4 mg/kg. The 24-hour time point was used as a benchmark across compounds.
Tumor platinum levels were determined by inductively coupled plasma mass spectrometry (ICP-MS). Tumors were excised from animals and dissolved in fuming nitric acid (60% w/w) by adding four parts nitric acid to 1 part tumor w/w and heating overnight at 60° C. The resulting digest was diluted 1:10 in ICP-MS analysis buffer (1% nitric acid, 2% Triton® X-100), and directly introduced into the ICP-MS unit by peristaltic pump. The end dilution factor for the samples as introduced to the ICP-MS was 50×.

[2] = system: MX-1 human breast cancer xenograft; format: in vivo, mouse; conditions: for % T/C (mean tumor volume) / % T/C (median tumor volume) / Mean tumor volume / Median tumor volume: days 1, 5, 8, 12
Excerpt: MX-1 cell line is estrogen receptor negative and Her2 normal. It is generic and BRCA1 and BRCA2 mutant: BRCA1 truncating mutation (3363delGAAA) and BRCA2 mutations (16864A>C, Asn289His, and 22184A>G, Asn991Asp). Average tumor volumes and platinum levels in the tumors were shown in FIG. 29 and Table 9. % T/C in Table 9 is the tumor to control ratio, i.e., the size of tumor divided by the size of tumor control. The lower % T/C is, the higher TGI % is.

Rat toxicology study = format: in vivo
NCI-H520 = assay: Multiple-dose efficacy study in lung cancer (NSCLC) model NCI-H520; format: in vivo; conditions: 15 mg/kg
Procedure: Tumor volumes and platinum levels were tracked over a course of 32 days after treatment of multiple doses of compound 8 (dosed at days 0, 3, 7 and 10) in lung cancer (NSCLC) model NCI-H520. Compound 8 was dosed at 15 mg/kg.
Cell dedifferentiation and apoptosis were studied with immunohistochemical (IHC) and TUNEL stainings.

[3] = Table 6 study, Calu-6 xenografts
[4] = Table 5 study, A2780 xenografts
[5] = H460 tumors, dosed at 4 mg/kg, 24-hour time point
[6] = nude, mouse, in vivo, 4 mg/kg, 24 h

Compound: N.N.[Cl][Pt][Cl] [Cisplatin]
- pIC50 (H460 cells): 5.70
- TGI % (Calu-6 NSCLC xenografts; Table 4 study, comparators): 91.4%
- TGI % (Calu-6 NSCLC xenografts; [3]): 94.57%
- TGI % (A2780 ovarian xenografts; Table 2 study, comparators): 54.5%
- TGI % (A2780 ovarian xenografts; Table 3 study, comparators): 44.2%
- TGI % (A2780 ovarian xenografts; [4]): 53.04%
- Platinum in tumor (mM/mmole/kg platinum dosed) [1, 5]: 0.27 mM/mmole/kg platinum dosed
- % T/C (mean tumor volume) ([2]; Day 1, 3 mg/kg): 100.6%
- % T/C (median tumor volume) ([2]; Day 1, 3 mg/kg): 105.5%
- Mean tumor volume ([2]; Day 1, 3 mg/kg): 153.6 mm^3
- Median tumor volume ([2]; Day 1, 3 mg/kg): 155.2 mm^3
- % T/C (mean tumor volume) ([2]; Day 5, 3 mg/kg): 96.2%
- % T/C (median tumor volume) ([2]; Day 5, 3 mg/kg): 107.3%
- Mean tumor volume ([2]; Day 5, 3 mg/kg): 343.7 mm^3
- Median tumor volume ([2]; Day 5, 3 mg/kg): 350.2 mm^3
- % T/C (mean tumor volume) ([2]; Day 8, 3 mg/kg): 39.3%
- % T/C (median tumor volume) ([2]; Day 8, 3 mg/kg): 42.9%
- Mean tumor volume ([2]; Day 8, 3 mg/kg): 251.2 mm^3
- Median tumor volume ([2]; Day 8, 3 mg/kg): 266.3 mm^3
- % T/C (mean tumor volume) ([2]; Day 12, 3 mg/kg): 4.9%
- % T/C (median tumor volume) ([2]; Day 12, 3 mg/kg): 5.4%
- Mean tumor volume ([2]; Day 12, 3 mg/kg): 57.6 mm^3
- Median tumor volume ([2]; Day 12, 3 mg/kg): 57.6 mm^3
- TGI % Day 15 ([2]; Day 15, 3 mg/kg): 98.6%
- % T/C (mean tumor volume) ([2]; Day 15, 3 mg/kg): 1.4%
- % T/C (median tumor volume) ([2]; Day 15, 3 mg/kg): 1.5%
- Mean tumor volume ([2]; Day 15, 3 mg/kg): 26.7 mm^3
- Median tumor volume ([2]; Day 15, 3 mg/kg): 29.7 mm^3

Compound: CCNC(=O)[O][Pt]([NH2])([NH2])([Cl])([Cl])[O]C(=O)CCCCCN1C(=O)C=CC1=O [Compound 7]
- Platinum in tumor (mM/mmole/kg platinum dosed) [1, 6]: 0.51 mM/mmole/kg platinum dosed

Compound: CC(=O)[O][Pt]([NH2])([NH2])([Cl])([Cl])[O]C(=O)NCCCCCN1C(=O)C=CC1=O [Compound 8]
- kidney toxicity (blood markers and histopathology) compared to cisplatin (Rat toxicology study; at a higher dose of platinum): improvement in kidney toxicity compared to cisplatin
- other histopathology findings (Rat toxicology study; rat, in vivo): No other histopathology findings
- TGI % compared to cisplatin and oxaliplatin (FIG. 17) (A2780 ovarian xenografts): superior TGI % to cisplatin and oxaliplatin
- Platinum in tumor (mM/mmole/kg platinum dosed) [1, 6]: 0.51 mM/mmole/kg platinum dosed
- tumor growth inhibition versus cisplatin (NCI-H520; days 0, 3, 7 and 10, cisplatin 3 mg/kg, 32 days): superior tumor growth inhibition than cisplatin
- apoptosis and dedifferentiation in tumors (IHC, TUNEL) (NCI-H520; images from day 10): significant and sustained increase in apoptosis and dedifferentiation
- tumor outcome at day 15 (in words) ([2]; day 15): Tumor disappeared

Compound: COCC(=O)[O][Pt]([NH2])([NH2])([Cl])([Cl])[O]C(=O)CCCCCN1C(=O)C=CC1=O [Compound 9]
- Platinum in tumor (mM/mmole/kg platinum dosed) [1, 6]: 0.53 mM/mmole/kg platinum dosed

Compound: CC(=O)[O][Pt]([NH2])([NH2])([Cl])([Cl])[O]C(=O)CCCCCN1C(=O)C=CC1=O [Compound 11]
- TGI % compared to cisplatin and oxaliplatin (FIG. 17) (A2780 ovarian xenografts): superior TGI % to cisplatin and oxaliplatin
- Platinum in tumor (mM/mmole/kg platinum dosed) [1, 6]: 0.68 mM/mmole/kg platinum dosed

Compound: O=C1[O][Pt]2([NH][C@@H]3CCCC[C@H]3[NH]2)[O]C1=O [Oxaliplatin]
- TGI % (Calu-6 NSCLC xenografts; Table 4 study, comparators): 56.7%
- TGI % (Calu-6 NSCLC xenografts; [3]): 21.19%
- TGI % (A2780 ovarian xenografts; Table 2 study, comparators): 45.9%
- TGI % (A2780 ovarian xenografts; Table 3 study, comparators): 40.1%
- TGI % (A2780 ovarian xenografts; [4]): 43.75%
- Platinum in tumor (mM/mmole/kg platinum dosed) [1, 5]: 0.12 mM/mmole/kg platinum dosed

Compound: acetate 6-(2,5-dioxo-2H-pyrrol-1(5H)-yl) hexanoate oxaliplatin [Compound 1]
- TGI % compared to cisplatin and oxaliplatin (FIG. 17) (A2780 ovarian xenografts): superior TGI % to cisplatin and oxaliplatin
- Platinum in tumor (mM/mmole/kg platinum dosed) [1, 5]: 0.57 mM/mmole/kg platinum dosed
